Laboratory results: the SangsterLogP compilation

| SMILES | logP |
| --- | --- |
| CCCCCCCCCCCCCCCc1cccc(O)c1O | 9.27 |
| CCCCCCCc1ccccc1O | 4.45 |
| CCCCCCCCCc1ccccc1O | 5.76 |
| CCCCCCCc1ccc(O)cc1 | 4.15 |
| CCCCCc1cccc(O)c1 | 3.13 |
| CCCCCCCCCCCc1ccc(O)cc1 | 7.18 |
| CCCCCCCCCCCCCc1ccc(O)cc1O | 6.84 |
| CCCCCCCCCCCCCCCc1ccc(O)c(O)c1 | 9.9 |
| CCCCCCCc1ccc(O)cc1O | 2.9 |
| CCCCCCCCCCCCCc1ccccc1O | 8.61 |
| CCCCCCCCCc1cccc(O)c1 | 5.61 |
| CCCCCCCCCCCCc1ccc(O)cc1 | 7.91 |
| CCCCCCCCCCCCCCCc1ccc(O)cc1O | 8.29 |
| CCCCCCCCCCCc1ccccc1O | 7.17 |
| CCCCCCCCCc1ccc(O)cc1 | 5.76 |
| CCCCCCCCCCCc1ccc(O)cc1O | 5.43 |

Other lines, results leading:

| logP | SMILES |
| --- | --- |
| 10.1 | CCCCCCCCCCCCCCCc1cccc(O)c1 |
| 4.1 | CCCCCCCCCc1ccc(O)cc1O |
| 6.94 | CCCCCCCCCCCc1ccc(O)c(O)c1 |
| 4.86 | CCCCCCCCCc1cccc(O)c1O |
| 6.3 | CCCCCCCCCCCc1cccc(O)c1O |
| 6.98 | CCCCCCCCCCCc1cccc(O)c1 |
| 3.59 | CCCCCCCc1cccc(O)c1O |
| 8.84 | CCCCCCCCCCCCCc1cccc(O)c1 |
| 8.2 | CCCCCCCCCCCCCc1ccc(O)cc1 |
| 7.75 | CCCCCCCCCCCCCc1cccc(O)c1O |
| 8.42 | CCCCCCCCCCCCCc1ccc(O)c(O)c1 |
| 3.13 | CCCCCc1ccc(O)c(O)c1 |
| 5.54 | CCCCCCCCCc1ccc(O)c(O)c1 |
| 10.1 | CCCCCCCCCCCCCCCc1ccccc1O |
